The results in this text go back to PubChem BioAssay AID1896 (NMMLSC, 2009).

Activity calls are given as the source filed them. No rule for the calls is given here. Bounds are passed on as bounds.

This test has as its target Mitogen-activated protein kinase kinase kinase 3 (Homo sapiens) (UniProt Q99759). The test is described as follows: inhibitors of MEK5 binding to MEKK3, dose response, biochemical, bead multiplex flow cytometry, wildtype (AID 1896). The following applies: bead-based multiplex flow cytometry, MEK5-MEKK3 PB1 binding; for Ki: measured here: Ki from EC50.

Sequence of Mitogen-activated protein kinase kinase kinase 3 (Homo sapiens) (Q99759 whole entry, looked up): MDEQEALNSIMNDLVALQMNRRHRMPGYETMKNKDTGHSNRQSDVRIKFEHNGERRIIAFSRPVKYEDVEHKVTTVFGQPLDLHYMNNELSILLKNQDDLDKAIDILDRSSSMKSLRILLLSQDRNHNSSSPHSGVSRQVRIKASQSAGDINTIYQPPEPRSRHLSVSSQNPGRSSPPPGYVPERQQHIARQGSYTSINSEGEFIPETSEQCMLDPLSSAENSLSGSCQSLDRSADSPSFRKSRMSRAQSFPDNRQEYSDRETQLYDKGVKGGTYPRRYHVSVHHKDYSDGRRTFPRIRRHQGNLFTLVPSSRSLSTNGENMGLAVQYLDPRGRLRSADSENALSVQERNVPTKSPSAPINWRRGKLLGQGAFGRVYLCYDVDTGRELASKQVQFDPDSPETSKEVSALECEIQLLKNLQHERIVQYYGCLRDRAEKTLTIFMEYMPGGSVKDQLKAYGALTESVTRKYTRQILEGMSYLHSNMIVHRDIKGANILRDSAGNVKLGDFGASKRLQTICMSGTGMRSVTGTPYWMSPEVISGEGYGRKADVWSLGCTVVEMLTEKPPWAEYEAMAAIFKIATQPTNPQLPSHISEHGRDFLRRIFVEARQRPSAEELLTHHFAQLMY

The EC50 is the concentration giving half of the maximal effect. Take `CCOC(=O)c1c(-c2ccc(-c3ccccc3)cc2)csc1NC(=O)CNCCN(C)C`: the EC50 is > 30 µM (inactive). The Ki is the equilibrium dissociation constant of an inhibitor or competing ligand from its target. Read a low Ki as a stronger hold on the target. For the molecule `O=C(Nc1ccc(C2=NCCN2)cc1)c1ccc(C(=O)Nc2ccc(C3=NCCN3)cc2)c([N+](=O)[O-])c1`, the 50% effective concentration (EC50) was 11.9 µM and the inhibitory constant (Ki) was found to be 10.2 µM. For `Cc1cc2ccccc2n1CCNC(=O)c1ccccc1` the same measures were 5.57 µM and 4.77 µM. Turning to `COc1ccccc1N(CN1C(=O)c2ccccc2C1=O)C(=O)c1cccc(C)c1`, the EC50 is > 30 µM (inactive). On the same count and under the same terms, to `CCc1ccc(Nc2n[n+](-c3ccccc3)c(-c3ccc(OCc4ccccc4)cc3)s2)cc1` belongs > 30 µM (inactive); to `c1ccc(CNc2nc(NCc3ccccc3)c3ccccc3n2)cc1`, > 30 µM (inactive); to `CCC(/C=C1\Sc2ccc(OC)cc2N1CC)=C\c1sc2ccc(OC)cc2[n+]1CCCS(=O)(=O)[O-]`, > 30 µM (inactive). Same read-out and setting: the figure for `CCCCCCCCCCOC(=O)Cn1c(COc2cccc(OC)c2)[n+](C)c2ccccc21` is > 30 µM (inactive). Take `CCN(CC)CCOC(=O)c1ccc(N/C=C(/C#N)c2nc(-c3ccc(OC)c(OC)c3)cs2)cc1`: the EC50 was 2.52 µM and the Ki was found to be 2.15 µM.
